Experimental data reported in ChEMBL document CHEMBL4321852, “Structure-Based and Property-Driven Optimization of N-Aryl Imidazoles toward Potent and Selective Oral RORγt Inhibitors” (J Med Chem, 2019).

Key:
[1] = Oral bioavailability in DA rat at 3 mg/kg; format: ADME, organism-based; conditions: in vivo
[2] = biological target: T1, Nuclear receptor ROR-gamma (Homo sapiens, UniProt P51449); test: Inhibition of human full-length eGFP-tagged RORgammat expressed in human HUT78 T-cells assessed as inhibition of PMA/CD3 monoclonal antibody stimulated IL-17 secretion after 48 hrs by ELISA; format: cell-based
T1 sequence (P51449 whole entry): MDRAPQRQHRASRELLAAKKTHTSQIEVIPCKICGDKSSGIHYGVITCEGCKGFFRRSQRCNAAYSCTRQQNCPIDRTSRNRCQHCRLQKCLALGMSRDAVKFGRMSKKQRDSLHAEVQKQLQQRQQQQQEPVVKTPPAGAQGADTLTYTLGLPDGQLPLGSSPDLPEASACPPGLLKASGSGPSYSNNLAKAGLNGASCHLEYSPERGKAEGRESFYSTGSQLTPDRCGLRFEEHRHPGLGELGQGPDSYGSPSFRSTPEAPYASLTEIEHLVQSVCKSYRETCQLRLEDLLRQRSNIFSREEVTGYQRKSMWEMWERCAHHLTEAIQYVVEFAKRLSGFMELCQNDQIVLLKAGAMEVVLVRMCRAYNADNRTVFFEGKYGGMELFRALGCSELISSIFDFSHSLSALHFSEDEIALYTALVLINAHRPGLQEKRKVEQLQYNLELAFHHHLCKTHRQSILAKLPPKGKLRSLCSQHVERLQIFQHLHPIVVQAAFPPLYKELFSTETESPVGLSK

[3] = Dose normalized AUC in DA rat at 5 mg/kg, po; format: ADME, organism-based; conditions: in vivo
[4] = biological target: T1, Nuclear receptor ROR-gamma; test: Inverse agonist activity at RORgammat in human whole blood assessed as reduction in Con A/IL-23-stimulated IL-17 secretion after 72 hrs by ELISA; format: tissue-based
[5] = biological target: T1, Nuclear receptor ROR-gamma; test: Displacement of RIP140 cofactor peptide from human His6-tagged RORgammat LBD (264 to 518 residues) by TR-FRET assay
[6] = tested on: Rattus norvegicus; test: Anti-inflammatory activity in mBSA/CFA-immunized Lewis rat delayed-type hypersensitivity model assessed as reduction in frequencies of IL-17-producing draining lymph node cells at 1 to 15 mg/kg, po via gavage administered twice daily for 2 days treated prior to mBSA/CFA challenge; format: functional, organism-based
[7] = biological target: T2, Peroxisome proliferator-activated receptor gamma (Homo sapiens, UniProt P37231); test: Inhibition of Gal4-tagged PPARgamma LBD (unknown origin) by cell based luciferase reporter gene assay
T2 sequence (P37231 whole entry): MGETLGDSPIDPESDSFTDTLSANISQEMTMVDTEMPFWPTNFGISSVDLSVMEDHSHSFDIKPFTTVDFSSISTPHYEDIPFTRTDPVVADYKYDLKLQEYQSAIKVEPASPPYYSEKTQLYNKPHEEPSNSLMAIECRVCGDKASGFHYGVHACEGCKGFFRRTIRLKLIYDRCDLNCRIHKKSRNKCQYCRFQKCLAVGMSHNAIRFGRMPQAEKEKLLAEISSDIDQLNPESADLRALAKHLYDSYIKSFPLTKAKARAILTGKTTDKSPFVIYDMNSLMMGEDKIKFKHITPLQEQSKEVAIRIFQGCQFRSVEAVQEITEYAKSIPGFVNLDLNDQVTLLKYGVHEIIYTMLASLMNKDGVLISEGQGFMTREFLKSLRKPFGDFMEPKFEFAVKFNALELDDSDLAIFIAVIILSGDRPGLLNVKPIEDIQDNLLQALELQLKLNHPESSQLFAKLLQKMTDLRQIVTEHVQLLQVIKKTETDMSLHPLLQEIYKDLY

[8] = tested on: Rattus norvegicus; test: Anti-inflammatory activity in mBSA/CFA-immunized Lewis rat delayed-type hypersensitivity model assessed as reduction in frequencies of IL-17-producing draining lymph node cells at 1 to 15 mg/kg, po via gavage administered twice daily for 2 days treated prior to mBSA/CFA challenge relative to control; format: functional; parameters: scale not given: the % may be the effect or the level left
[9] = biological target: T3, Nuclear receptor ROR-alpha (Homo sapiens, UniProt P35398); test: Inhibition of Gal4-tagged RORalpha LBD (unknown origin) by cell based luciferase reporter gene assay
T3 sequence (P35398 whole entry): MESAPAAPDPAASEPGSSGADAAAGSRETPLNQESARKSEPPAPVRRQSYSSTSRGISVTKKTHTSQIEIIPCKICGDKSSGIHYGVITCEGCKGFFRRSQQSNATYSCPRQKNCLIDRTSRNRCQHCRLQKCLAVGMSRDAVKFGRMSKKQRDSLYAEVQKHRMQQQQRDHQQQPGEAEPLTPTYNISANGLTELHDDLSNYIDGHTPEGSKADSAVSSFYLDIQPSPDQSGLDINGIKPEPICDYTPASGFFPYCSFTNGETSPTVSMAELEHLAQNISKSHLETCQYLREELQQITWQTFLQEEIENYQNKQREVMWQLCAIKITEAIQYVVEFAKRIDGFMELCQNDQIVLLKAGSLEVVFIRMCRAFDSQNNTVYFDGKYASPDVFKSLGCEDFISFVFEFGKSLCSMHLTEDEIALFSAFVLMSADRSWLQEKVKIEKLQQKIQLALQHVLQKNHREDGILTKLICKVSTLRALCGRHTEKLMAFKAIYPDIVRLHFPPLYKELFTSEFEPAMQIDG

[10] = Dose normalized Cmax in DA rat at 5 mg/kg, po; format: ADME, organism-based; conditions: in vivo
[11] = Clearance in Sprague-Dawley rat at 1 mg/kg, iv; format: ADME, organism-based; conditions: in vivo
[12] = biological target: T4, Bile acid receptor (Homo sapiens, UniProt Q96RI1); test: Inhibition of Gal4-tagged FXR LBD (unknown origin) by cell based luciferase reporter gene assay
T4 sequence (Q96RI1 whole entry): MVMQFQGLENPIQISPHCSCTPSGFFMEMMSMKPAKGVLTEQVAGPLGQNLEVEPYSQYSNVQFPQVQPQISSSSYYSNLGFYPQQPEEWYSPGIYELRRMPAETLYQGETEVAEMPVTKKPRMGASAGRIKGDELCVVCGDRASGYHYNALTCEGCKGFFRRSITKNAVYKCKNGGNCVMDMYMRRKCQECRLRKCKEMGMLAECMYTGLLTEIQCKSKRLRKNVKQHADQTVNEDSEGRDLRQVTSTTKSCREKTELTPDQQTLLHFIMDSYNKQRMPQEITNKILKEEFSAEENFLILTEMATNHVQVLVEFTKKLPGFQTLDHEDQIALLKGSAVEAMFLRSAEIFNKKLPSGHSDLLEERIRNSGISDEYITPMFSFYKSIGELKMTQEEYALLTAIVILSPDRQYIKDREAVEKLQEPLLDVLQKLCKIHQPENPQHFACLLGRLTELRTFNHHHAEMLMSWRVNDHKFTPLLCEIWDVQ

[13] = Dose normalized AUC in Sprague-Dawley rat at 1 mg/kg, iv; format: ADME, organism-based; conditions: in vivo

Molecule Cc1c(C2(C(F)(F)F)CC2)nc(C2CC2)n1-c1c(Cl)ccc(N2CC3(CC(C(=O)O)C3)C2)c1Cl (single isomer, unassigned; atropisomer) has a bioavailability [1] of 90%, an IC50 [2] of 0.07 µM and an AUC/dose [3] of 11391 nM·h. The IC50 [4] was 1.34 µM, the IC50 [5] was 0.005 µM and the Activity [6] was “Dose-dependent effect”. For the same molecule, the IC50 [7] was greater than 10 µM, the Activity [8] was 50% and the IC50 [9] was greater than 10 µM. It also gave a Cmax/dose [10] of 2448 nM, a clearance [11] of 2.7 mL/min/kg and an IC50 [12] greater than 10 µM. For the same molecule, the AUC/dose [13] was 12680 nM·h.
